Experimental findings from article PMC2639639, “Identification of Three Classes of Heteroaromatic Compounds with Activity against Intracellular Trypanosoma cruzi by Chemical Library Screening” (PLoS Neglected Tropical Diseases, 2009) are described below.

Where two headings read alike, the source gives them in different places.

Series [1] concerns T. cruzi (Tulahuen strain) expressing β-galactosidase. Nature of the series: T. cruzi growth inhibition assay (β-gal activity, infection of NIH/3T3 cells). Type of series: cell-based, Trypanosoma cruzi. How it is done: NIH/3T3 cells and parasites were harvested, washed once and resuspended in DMEM supplemented with 2% FBS and Pen-Strep-Glut. […] Different numbers of NIH/3T3 cells were seeded in 96-well plates. After 3 h, compounds were added at the indicated concentrations and mixed by pipetting. BZN tablets (Rochagan, Roche) dissolved in DMSO and 4 µM Amphotericin B solution (Sigma-Aldrich) were used as positive controls. Different numbers of T. cruzi parasites were added in a final volume of 200 µl/well. After 4 days, 50 µl of PBS containing 0.5% of the detergent NP40 and 100 µM Chlorophenol Red-β-D-galactoside (CPRG) (Fluka) were added. Plates were incubated at 37°C for 4 h and absorbance was read at 590 nm using a Tecan Spectra Mini plate reader.
To calculate the Z′ factor, we used the formula described by Zhang et al.: Z′ = 1−[(3σc++3σc−) / |μc+−μc−|] where σc+ = standard deviation (SD) of positive control, σc− = SD of negative control, μc+ = mean of positive control, μc− = mean of negative control. Subsequently, the best ratio was used for all growth inhibition assays (50.000 cells and parasites, multiplicity of infection (MOI) 1∶1).
To determine IC50 values, β-gal activity (Abs590) was plotted against compound concentration for each compound. The IC50 was determined as the concentration at which the activity (absorbance) was half that in the absence of compound. Mean IC50 values are the average of independent experiments performed in triplicate on three different days.

The next series deals with NIH/3T3 cells. Nature of the series: Cytotoxicity assay (Alamar Blue) on NIH/3T3 cells. The format is cell-based. The settings on record: 4-day assay on NIH/3T3 cells. Here is the method:
(§1) Cells (NIH/3T3 or HepG2) were washed and plated at a density of 50,000 cells/well of 96-well plates in 200 µl and allowed to adhere for 3 h. Twenty-four hour assays were done in DMEM without phenol red supplemented with 10% FBS and Pen-Strep-Glut, while 4-day assays were done in the same medium containing 2% FBS. Drugs were added and mixed. After 1 or 4 days, 20 µl of Alamar Blue (Biosource, Invitrogen) was added. Plates were incubated for 4 h (HepG2) or 6 h (NIH/3T3) at 37°C and fluorescence was read using a Labsystems Fluoroskan II plate reader (excitation: 544 nm, emission: 590 nm) .
(§2) To determine TC50 values, fluorescence was plotted against inhibitor concentration. TC50 was determined as the concentration at which cytotoxicity (fluorescence) was half that in the absence of inhibitor.
In general terms: The colour change of resazurin is a common sign of viable cells or microbes.

In a further series the test system is mammalian cells. Description: Cytotoxicity on mammalian cells (cell type not given). The format is cell-based. The following applies: cells and duration not stated. Here is the method: as §1, §2
The mark [2] stands for this setting: Trypanosoma cruzi, TULAHUEN, NIH3T3, 96 h, β-gal T. cruzi Tulahuen, 50.000 NIH/3T3 cells and parasites (MOI 1:1), 4 days, read-out: IC50 Intracellular growth.
Where [3] appears, read: Trypanosoma cruzi, TULAHUEN, NIH3T3, 96 h, read-out: IC50 Intracellular growth.
Where [4] appears, read: Trypanosoma cruzi, TULAHUEN, NIH3T3, other confirmed hits that retained activity at 5 µg/ml, read-out: IC50 < 1 µg/ml.
[5] abbreviates: β-gal T. cruzi Tulahuen, 50.000 NIH/3T3 cells and parasites (MOI 1:1), 4 days, read-out: IC50 Intracellular growth.

Regarding `O=C(NN=Cc1ccc(-c2cccc(Cl)c2Cl)o1)c1cccnc1` [PCH2, N′-{[5-(2,3-dichlorophenyl)-2-furyl]methylene}nicotinohydrazide], the IC50 in series [1] (setting [2]) is 1930 ± 707 nM. The same measure, in the same setting: the same measure for `O=C(CCCn1cnc([N+](=O)[O-])n1)Nc1cc(C(F)(F)F)ccc1Cl` [NT8, N-[2-chloro-5-(trifluoromethyl)phenyl]-4-(3-nitro-1H-1,2,4-triazol-1-yl)butanamide]: 983 ± 388 nM; for `O=C(NN=Cc1ccc(-c2cccc(Cl)c2Cl)o1)c1ccncc1` [PCH3, N′-{[5-(2,3-dichlorophenyl)-2-furyl]methylene}isonicotinohydrazide]: above 10000 nM; for `O=C(NN=Cc1ccc(-c2cc(Cl)ccc2Cl)o1)c1ccccc1` [PCH9, N′-{[5-(2,5-dichlorophenyl)-2-furyl]methylene}benzohydrazide]: 960 ± 300 nM. With `O=C(Cn1cnc([N+](=O)[O-])n1)Nc1cc(Oc2cccnc2)cc([N+](=O)[O-])c1` [NT3, N-[3-nitro-5-(3-pyridinyloxy)phenyl]-2-(3-nitro-1H-1,2,4-triazol-1-yl)acetamide], the IC50 in series [1] (setting [3]) worked out at 4920 ± 1280 nM.

Take `O=C(Cn1cnc([N+](=O)[O-])n1)Nc1cc(C(F)(F)F)ccc1Cl` [NT6, N-[2-chloro-5-(trifluoromethyl)phenyl]-2-(3-nitro-1H-1,2,4-triazol-1-yl)acetamide]: in series [1] (setting [2]), the IC50 was found to be 1130 ± 378 nM. Take `O=c1c2c3c(sc2[nH]c(=S)n1Cc1ccccc1)CCC3` [3-benzyl-2-thioxo-1,2,3,5,6,7-hexahydro-4H-cyclopenta[4,5]thieno[2,3-d]pyrimidin-4-one]: the “TC50 > 25 mg/ml” value in the series with NIH/3T3 cells is on record as “NO (> 25 mg/ml)”. The IC50 in series [1] (setting [4]) is above 1 µg/mL. In the case of `COc1cc(NC(=O)Cn2cnc([N+](=O)[O-])n2)cc([N+](=O)[O-])c1` [NT2, N-(3-methoxy-5-nitrophenyl)-2-(3-nitro-1H-1,2,4-triazol-1-yl)acetamide], the IC50 in series [1] (setting [3]) is 2630 ± 808 nM. On to `COc1ccc(-c2ccc(C=NNC(=O)c3ccccn3)o2)cc1Cl` [PCH8, N′-{[5-(3-chloro-4-methoxyphenyl)-2-furyl]methylene}-2-pyridinecarbohydrazide], for which the IC50 amounted to 1600 nM in series [1] (Trypanosoma cruzi, TULAHUEN, NIH3T3, 96 h, β-gal T. cruzi Tulahuen in NIH/3T3 cells, 4 days, read-out: IC50 T. cruzi growth inhibition) and 1680 ± 490 nM in series [1] (setting [2]).

Consider `COc1ccc(NC(=S)NC(=O)c2ccco2)cc1` [N-{[(4-methoxyphenyl)amino]carbonothioyl}-2-furamide], for which the “TC50 > 25 mg/ml” value with NIH/3T3 cells is recorded as “YES (> 25 mg/ml)”. Further, the IC50 in series [1] (setting [4]) was above 1 µg/mL. For `O=C(NN=Cc1ccc(-c2cccc(Cl)c2)o1)c1ccccn1` [PCH5, N′-{[5-(3-chlorophenyl)-2-furyl]methylene}-2-pyridinecarbohydrazide], the IC50 in series [1] (setting [2]) turned out to be 29 ± 20 nM. For the compound `CCOc1ccc(-c2cn3c4ccccc4n(CCN(CC)CC)c3n2)cc1.Cl` [{2-[2-(4-ethoxyphenyl)-9H-imidazo[1,2-a]benzimidazol-9-yl]ethyl}diethylamine hydrochloride], in the series with NIH/3T3 cells, the “TC50 > 25 mg/ml” value is given as “NO (> 25 mg/ml)”. In addition, the IC50 in series [1] (setting [4]) was above 1 µg/mL. Take `O=C(Cn1cnc([N+](=O)[O-])n1)Nc1cccc(C(F)(F)F)c1` [NT5, 2-(3-nitro-1H-1,2,4-triazol-1-yl)-N-[3-(trifluoromethyl)phenyl]acetamide]: the IC50 in series [1] (setting [2]) came to 1060 ± 385 nM.

Regarding `Cc1cc(Cl)cc(C)c1OCCCCn1ccnc1` [CX6, 1-[4-(4-chloro-2,6-dimethylphenoxy)butyl]-1H-imidazole], the IC50 in series [1] (setting [2]) was determined as 71.6 ± 37 nM. Still for that read-out and setting: the same measure for `Cc1cc(OCCCCn2ccnc2)cc(C)c1Cl` [CX3, 1-[4-(4-chloro-3,5-dimethylphenoxy)butyl]-1H-imidazole]: 5.1 nM; for `Cc1cc(Cl)cc(C)c1OCCCCCn1ccnc1` [CX5, 1-[5-(4-chloro-2,6-dimethylphenoxy)pentyl]-1H-imidazole]: 20.5 nM. In the series with mammalian cells, `O=C(NN=Cc1ccc(-c2ccccc2Cl)o1)c1ccccn1` [PCH6, N′-{[5-(2-chlorophenyl)-2-furyl]methylene}-2-pyridinecarbohydrazide] registered a TC50 of 18.5 µM. In addition, the results for the IC50 in series [1] (setting [2]) and in series [1] (setting [5]) were 2 nM and 2.1 nM, respectively. In the case of `O=C(NN=Cc1ccc(-c2ccc(Cl)c(Cl)c2)o1)c1ccccn1` [PCH7, N′-{[5-(3,4-dichlorophenyl)-2-furyl]methylene}-2-pyridinecarbohydrazide], the IC50 in series [1] (setting [2]) stood at 35 ± 20 nM.

In the case of `O=C(Cn1cnc([N+](=O)[O-])n1)Nc1ccc(Cl)cc1C(F)(F)F` [NT7, N-[4-chloro-2-(trifluoromethyl)phenyl]-2-(3-nitro-1H-1,2,4-triazol-1-yl)acetamide], the IC50 in series [1] (setting [2]) came out at 1290 ± 463 nM. As for `Br.Cc1ccnc(Nc2nc(-c3ccccn3)cs2)c1` [4-methyl-N-[4-(2-pyridinyl)-1,3-thiazol-2-yl]-2-pyridinamine hydrobromide], the “TC50 > 25 mg/ml” value in the series on NIH/3T3 cells is given as “NO (> 25 mg/ml)”. In addition, the IC50 in series [1] (setting [4]) is below 1 µg/mL. Regarding `Cc1cc(Cl)cc(C)c1OCCCCCCn1ccnc1` [CX4, 1-[6-(4-chloro-2,6-dimethylphenoxy)hexyl]-1H-imidazole], the IC50 in series [1] (setting [2]) was 300 nM.

On to `O=C(CCCn1cnc([N+](=O)[O-])n1)Nc1ccccc1C(F)(F)F` [NT9, 4-(3-nitro-1H-1,2,4-triazol-1-yl)-N-[2-(trifluoromethyl)phenyl]butanamide], for which the IC50 in series [1] (setting [2]) came to 3020 ± 1390 nM. `CCOC(=O)c1ccc(Nc2nc3nonc3nc2NC(C)C)cc1` [ethyl 4-{[6-(isopropylamino)[1,2,5]oxadiazolo[3,4-b]pyrazin-5-yl]amino}benzoate]: in the series with NIH/3T3 cells, the “TC50 > 25 mg/ml” value is listed as “NO (> 25 mg/ml)”. The IC50 in series [1] (setting [4]) is above 1 µg/mL. On to `O=C(NN=Cc1ccc(-c2cccc(Cl)c2Cl)o1)c1ccc(Br)cc1` [PCH4, 4-bromo-N′-{[5-(2,3-dichlorophenyl)-2-furyl]methylene}benzohydrazide], for which the IC50 in series [1] (setting [2]) is above 10000 nM. For `Cc1cc(OCCCCCn2ccnc2)cc(C)c1Cl` [CX2, 1-[5-(4-chloro-3,5-dimethylphenoxy)pentyl]-1H-imidazole], the TC50 in the series on mammalian cells came to 19.5 µM. Moreover, the IC50 in series [1] (setting [2]) was found to be 2 nM; in series [1] (setting [5]), 2.5 nM. For `O=C(NN=Cc1cc(Br)cc(Br)c1O)c1cccc(N2CCCC2=O)c1` [N'-(3,5-dibromo-2-hydroxybenzylidene)-3-(2-oxo-1-pyrrolidinyl)benzohydrazide], in the series with NIH/3T3 cells, the “TC50 > 25 mg/ml” value is given as “NO (> 25 mg/ml)”. Also, in series [1] (setting [4]), the IC50 was above 1 µg/mL. As for `O=C(Cn1cnc([N+](=O)[O-])n1)Nc1cc(Oc2cncc(Cl)c2)cc([N+](=O)[O-])c1` [NT4, N-{3-[(5-chloro-3-pyridinyl)oxy]-5-nitrophenyl}-2-(3-nitro-1H-1,2,4-triazol-1-yl)acetamide], the IC50 in series [1] (setting [3]) is 1270 ± 251 nM. With `O=C(NN=Cc1ccc(-c2ccccc2Cl)o1)c1cccnc1` [PCH10, N′-{[5-(2-chlorophenyl)-2-furyl]methylene}nicotinohydrazide], in series [1] (setting [2]), the IC50 came out at 720 ± 183 nM. Turning to `Cc1ccc2n(c1)cc(C)[n+]2CC(=O)c1ccc(-c2ccccc2)cc1.[Br-]` [1-[2-(4-biphenylyl)-2-oxoethyl]-2,6-dimethylimidazo[1,2-a]pyridin-1-ium bromide], the “TC50 > 25 mg/ml” value in the series with NIH/3T3 cells is “YES (> 25 mg/ml)”. In addition, in series [1] (setting [4]), the IC50 is above 1 µg/mL. For `CCN(CC)c1ccc(N=Cc2cccc(C)c2)cc1` [N,N-diethyl-N'-(3-methylbenzylidene)-1,4-benzenediamine], the “TC50 > 25 mg/ml” value in the series on NIH/3T3 cells was “YES (> 25 mg/ml)”. Also, the IC50 in series [1] (setting [4]) is above 1 µg/mL.
